Experimental data from patent US10570116B2, “1,4-dicarbonyl-piperidyl derivatives” (Merck Patent GmbH, priority 2015, dated 2020).

Key:
Tankyrase = conditions: prior art value; read-out: cellular assay: EC50; cited from earlier work
DLD-1-cancer cells = conditions: Huang et al., 2009; cited from earlier work
TNKS2 = TNKS2 (Homo sapiens (Human), UniProt Q9H2K2); assay: biochemical; type: biochemical; conditions: GST-tagged Tnks-2 (873-1166 aa); read-out: IC50 [M] TNKS2 ELISA
Tankyrases = assay: Measurement of cellular inhibition of Tankyrase (Axin2 level, Luminex based assay, DLD1 cells); type: cell-based; conditions: increase of Axin2 level, 24 hours, read-out: EC50 [M] TNKS cellular assay
PARP-1 = PARP-1 (Homo sapiens (Human), UniProt P09874); assay: Biochemical activity testing of PARP-1: autoparsylation assay (HTRF); conditions: His-tagged Parp-1, autoparsylation HTRF
TNKS1 = TNKS1 (Homo sapiens (Human), UniProt O95271); assay: biochemical; type: biochemical; conditions: GST-tagged Tnks-1 (1023-1327 aa); read-out: IC50 [M] TNKS1 ELISA

PARP-1, sequence (P09874 whole entry, the tested form may be a part): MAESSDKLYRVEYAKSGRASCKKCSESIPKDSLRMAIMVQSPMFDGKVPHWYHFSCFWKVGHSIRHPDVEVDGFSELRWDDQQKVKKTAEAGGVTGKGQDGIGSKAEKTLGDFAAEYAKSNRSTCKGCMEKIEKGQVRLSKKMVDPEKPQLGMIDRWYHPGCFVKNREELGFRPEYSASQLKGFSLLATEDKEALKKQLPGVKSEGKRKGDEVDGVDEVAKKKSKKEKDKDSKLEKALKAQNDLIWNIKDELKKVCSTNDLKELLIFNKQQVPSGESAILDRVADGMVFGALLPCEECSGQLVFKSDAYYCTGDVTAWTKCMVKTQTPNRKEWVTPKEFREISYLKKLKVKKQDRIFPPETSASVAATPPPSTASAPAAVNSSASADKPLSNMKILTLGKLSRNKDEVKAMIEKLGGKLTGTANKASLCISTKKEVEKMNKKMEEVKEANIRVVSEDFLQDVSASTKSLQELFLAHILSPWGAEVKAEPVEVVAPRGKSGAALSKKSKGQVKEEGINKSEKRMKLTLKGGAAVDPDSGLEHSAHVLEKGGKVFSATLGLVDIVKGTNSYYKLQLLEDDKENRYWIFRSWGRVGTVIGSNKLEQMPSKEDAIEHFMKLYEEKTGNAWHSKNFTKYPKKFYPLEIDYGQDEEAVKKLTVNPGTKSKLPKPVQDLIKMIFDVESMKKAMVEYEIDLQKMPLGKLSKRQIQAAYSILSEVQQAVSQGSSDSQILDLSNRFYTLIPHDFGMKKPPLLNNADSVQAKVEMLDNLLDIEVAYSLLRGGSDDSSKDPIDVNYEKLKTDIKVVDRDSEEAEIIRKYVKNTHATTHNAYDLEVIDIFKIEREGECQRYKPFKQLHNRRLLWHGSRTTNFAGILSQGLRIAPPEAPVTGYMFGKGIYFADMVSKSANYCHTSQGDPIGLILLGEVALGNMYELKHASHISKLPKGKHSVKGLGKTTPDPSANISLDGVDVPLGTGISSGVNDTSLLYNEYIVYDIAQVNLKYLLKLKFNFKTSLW

Structure (SMILES)	EC50 (Tankyrase) [nM]	growth of DLD-1-cancer cells (DLD-1-cancer cells)	IC50 (TNKS2) [M]	EC50 (Tankyrases) [M]	IC50 (PARP-1) [nM]	IC50 (TNKS1) [M]
COc1ccc(C(=O)C2CCN(CC(=O)N(Cc3nc4c(c(=O)[nH]3)COCC4)CC3CC3)CC2)cc1 [benzoylpiperidine derivative]	35	–	–	–	–	–
Oc1nc(-c2ccc(C(F)(F)F)cc2)nc2c1CSCC2 [XAV939]	–	inhibits growth	–	–	–	–
COc1ccc(C(=O)C2CCN(C(=O)CC(C)(C)Cc3nc4c(cnn4C)c(=O)[nH]3)CC2)cn1 [Compound C21, 6-{4-[4-(6-Methoxy-pyridine-3-carbonyl)-piperidin-1-yl]-2,2-dimethyl-4-oxo-butyl}-1-methyl-1,5-dihydro-pyrazolo[3,4-d]pyrimidin-4-one]	–	–	2.1e-09	1.6e-08	> 30000	3.6e-09
CCn1cc(C(=O)C2CCN(C(=O)CC(C)(C)Cc3nc4c(ccn4C)c(=O)[nH]3)CC2)cn1 [Compound C18, 2-{4-[4-(1-Ethyl-1H-pyrazole-4-carbonyl)-piperidin-1-yl]-2,2-dimethyl-4-oxo-butyl}-7-methyl-3,7-dihydro-pyrrolo[2,3-d]pyrimidin-4-one]	–	–	3.6e-10	2.8e-09	> 30000	5.8e-10
Cn1cc(C(=O)C2CCN(C(=O)CC(C)(C)Cc3nc4c(cnn4C)c(=O)[nH]3)CC2)cn1 [Compound C20, 6-{2,2-Dimethyl-4-[4-(1-methyl-1H-pyrazole-4-carbonyl)-piperidin-1-yl]-4-oxo-butyl}-1-methyl-1,5-dihydro-pyrazolo[3,4-d]pyrimidin-4-one]	–	–	7.3e-10	1.9e-08	> 30000	9.2e-10
